Measurements taken from patent US20030216479A1, “Novel compositions comprising 2,2-Bis (4-hydroxy-3-methylphenyl) heptane and uses thereof” (priority 2001, published 2003).
Values after ≈ are worked out from the molar mass of the structure shown.

Columns and labels:
[1] = tested on: H. influenzae; assay: MIC antibacterial activity; format: cell-based; conditions: Haemophilus influenzae
[2] = tested on: E. faecalis; assay: MIC antibacterial activity; format: cell-based; conditions: Enterococcus faecalis
[3] = tested on: S. pneumoniae; assay: MIC antibacterial activity; format: cell-based; conditions: Streptococcus pneumoniae
[4] = tested on: S. pyogenes; assay: MIC antibacterial activity; format: cell-based; conditions: Streptococcus pyogenes
[5] = tested on: H. pylori; assay: MIC antibacterial activity; format: cell-based; conditions: Helicobacter pylori
[6] = tested on: S. epidermidis; assay: MIC antibacterial activity; format: cell-based; conditions: Staphylococcus epidermidis
[7] = tested on: M. catarrhalis; assay: MIC antibacterial activity; format: cell-based; conditions: Moraxella catarrhalis
[8] = tested on: methicillin-sensitive Staphylococcus aureus; assay: Wound healing model (FIG. 1); format: in vivo; conditions: methicillin-susceptible Staphylococcus aureus; mice; topical twice daily from 24 h; sampled 72 h post-infection
Description: (§1) FIG. 1. Efficacy of a composition comprising 2,2-Bis(4-hydroxy-3-methylphenyl)heptane in the wound healing model. A defined inoculum of approximately 10^5 CFU of methicillin-sensitive Staphylococcus aureus in 20 μl culture medium was pipetted into a wound approximately 1 cm^2 created by removal of the epidermis from the shaved backs of mice. After 24 hours, the composition comprising 2,2-Bis(4-hydroxy-3-methylphenyl)heptane, placebo control or positive control ointment was applied twice daily. Approximately, seventy two hours post-infection, the wound was sampled and appropriate dilutions plated on nutritive agars for determination of microbial burden. The number of colony forming units (CFU) of methicillin-sensitive Staphylococcus aureus per wound is shown.
(§2) The wound healing model, using methods generally known by those skilled in the art, is used to measure the efficacy of topically applied compounds in suitable vehicles against any bacteria, for example, Staphylococcus epidermis, Staphylococcus aureus, Streptococcus pyrogenes, Haemophilus influenzae, or mixtures thereof. By removing several epidermal layers by surgical procedure, a superficial wound of approximately 1 cm^2 was created. About 10 ^5 cfu/20 ul of culture medium of any bacteria, for example, S aureus, was applied to the wound. […]

[9] = tested on: Staphylococcus epidermidis; assay: Wound healing model (FIG. 3); format: in vivo; conditions: mice, topical twice daily from 24 h, sampled 72 h post-infection
Description: as §1, with “3.” for “1.”, “epidermis” for “aureus”
as §2

[10] = tested on: M. smegmatis; assay: MIC antibacterial activity; format: cell-based; conditions: Mycolicibacterium smegmatis
[11] = tested on: methicillin-resistant Staphylococcus aureus; assay: Wound healing model (FIG. 2); format: in vivo; conditions: mice, topical twice daily from 24 h, sampled 72 h post-infection
Description: as §1, with “2.” for “1.”, “methicillin-resistant” for “methicillin-sensitive”
as §2

[12] = tested on: C. diphtheriae; assay: MIC antibacterial activity; format: cell-based; conditions: Corynebacterium diphtheriae

MIC [1]: 6 µg/mL (≈ 19.2 µM)
MIC [2]: 2 µg/mL (≈ 6.4 µM)
MIC [3]: 6 µg/mL (≈ 19.2 µM)
MIC [4]: 6 µg/mL (≈ 19.2 µM)
MIC [5]: 16 µg/mL (≈ 51.2 µM)
MIC [6]: 2 µg/mL (≈ 6.4 µM)
MIC [7]: 2 µg/mL (≈ 6.4 µM)
MIC [10]: 2 µg/mL (≈ 6.4 µM)
melting point: 99 to 101 °C
MIC [12]: 2 µg/mL (≈ 6.4 µM)
SMILES: CCCCCC(C)(c1ccc(O)c(C)c1)c1ccc(O)c(C)c1 [2,2-Bis(4-hydroxy-3-methylphenyl)heptane]
reducing the population levels of pathogenic bacteria (CFU per wound) [8]: efficacious
reducing the population levels of pathogenic bacteria (CFU per wound) [9]: efficacious
reducing the population levels of pathogenic bacteria (CFU per wound) [11]: efficacious
